The term GI50 denotes the concentration that inhibits growth by half.

Bounds are passed on as bounds.

Common to all, as to type: functional
The subject of one test is CWR22R. Description: Antiproliferative activity against AR-positive human 22Rv1 cells harboring ARE14 construct assessed as growth inhibition after 72 hrs by resazurin dye based fluorescence assay. The conditions noted are these: 22Rv1, 72 h.
Test [1] concerns LNCaP C4-2. In words: Antiproliferative activity against AR-positive human C4-2 cells assessed as growth inhibition after 72 hrs by resazurin dye based fluorescence assay. The conditions noted are these: LNCaP C4-2, 72 h.
Test [2] relates to VCaP. Description: Antiproliferative activity against AR-positive human VCaP cells assessed as growth inhibition after 72 hrs by resazurin dye based fluorescence assay.
For another test, the system named is PC-3. Description: Antiproliferative activity against AR-negative human PC3 cells assessed as growth inhibition after 72 hrs by resazurin dye based fluorescence assay. The note with it: PC-3, 72 h. In general terms: Resazurin is reduced to fluorescent resorufin, in cell work by metabolically active cells.
Test [3] has as its system LNCaP C4-2. Description: Antiproliferative activity against AR-positive human C4-2 cells assessed as cell viability at 40 uM after 72 hrs by resazurin dye based fluorescence assay. The note with it: LNCaP C4-2, 72 h, read-out: Activity.
Test [4] has as its system VCaP. Description: Antiproliferative activity against AR-positive human VCaP cells assessed as cell viability at 40 uM after 72 hrs by resazurin dye based fluorescence assay. The note with it: read-out: Activity.

As to `C[C@]12CC[C@H](O)CC1=CC[C@@H]1[C@@H]2CC[C@]2(C)C(n3cnc4ccccc43)=CC[C@@H]12` [GALETERONE], the 50% growth inhibitory concentration (GI50) in the test on CWR22R was 37.8 µM; with LNCaP C4-2 [1], more than 40 µM; in the test on VCaP [2] it was more than 40 µM; in the test with PC-3, 37.7 µM. In addition, the viability at 40 µM in the test on LNCaP C4-2 [3] was found to be 74.3%; with VCaP [4] it was 57.2%.

The values above are taken from ChEMBL document CHEMBL4351016 (Eur J Med Chem, 2019).
